“And” between values parts separate entries of the source, which are not always exact repeats. Identical values can stand only once.

The Papp B→A is the apparent permeability from the basolateral to the apical side of a cell layer. As a reminder, the Papp A→B is the apparent permeability from the apical to the basolateral side of a cell layer.

The test system of data set [1] is MCTs. As to the kind of experiment: in vitro. Particulars: human, Caco-2, ER, Caco-2, 2 μM, + Phloretin 0.3 mM (MCTs). The protocol:
(§1) Caco-2, MDCK and MDCK-MRP2 cells were donated by Prof. Yan Xie and Yueming Ma from Shanghai University of Traditional Chinese Medicine. The cells were grown in culture dishes (Corning® Costar, Cambridge, MA, USA) using DMEM supplemented with 10% FBS, 1% NEAA and 1% penicillin-streptomycin solution. The cells were cultured in 5% CO2 and […] with 90% relative humidity at 37°C. The medium was replaced every other day during incubation. The cells were passaged every 3–4 days between 70 and 80% confluence at a 1:5 split ratio using 0.25% trypsin-EDTA. For the transport experiments, the cells from passages between 30 and 45 were seeded at 1 × 10^5 cells/cm^2 onto permeable polycarbonate inserts (0.45 μm pore size, seeding surface of 0.6 cm^2, Millipore, MA, USA) in 24-well plastic plates. The media in the culture plates were changed every other day for the first week after seeding and were replaced daily afterward. […] The cells were used for the transport experiments 21–28 (Caco-2) or 5–7 (MDCK and MDCK-MRP2) days after seeding, and only monolayers with a TEER-value above 420 Ω cm^2 were used during the studies.
(§2) The apical (AP) and basolateral (BL) sides are typical of polarized Caco-2, MDCK and MDCK-MRP2 epithelial cells. Before the experiments, the polarized cell monolayers were washed twice with warm HBSS solution and subsequently preincubated (37°C, 30 min). Afterward, HBSS solution on both sides of the cell monolayers was removed using a mini desktop vacuum pump. […] The final DMSO concentration in the HBSS or drug mixture was below 0.5%. The monolayers were incubated at 37°C, and 100 μL samples were taken at 30, 60, 90, and 120 min from the acceptor compartment and immediately replaced with the same volume of prewarmed fresh blank HBSS. TEER measurements for assessing the membrane integrity took place before and after the experiments.
(§3) The apparent permeability coefficients (Papp) and ER were calculated as Equations (2) and (3): […]
(§4) where dQ/dt is the steady-state flux, A is the membrane surface area, and C0 is the initial drug concentration in the donor compartment. PappBA is the Papp-value measured in BL to AP direction and PappAB is the Papp-value measured in AP to BL direction. It indicated the involvement of an active transport process when the ER-value is above 1.5 (Hubatsch et al., [2007]).

The test system of data set [2] is OCTs/OCTNs. As to the kind of experiment: in vitro. Particulars: human, Caco-2, ER, Caco-2, 2 μM, + TEA 5 mM (OCTs/OCTNs). The protocol: as §1, §2, §3, §4
In data set [3] the test system is SGLT1. As to the kind of experiment: in vitro. As to conditions: human, Caco-2, ER, Caco-2, 2 μM, + Phloridzin 0.5 mM (SGLT1). The protocol: as §1, §2, §3, §4
A short description of data set [4]: Bidirectional transport in MDCK cell monolayers with selective transporter inhibitors or substrates. The class given is in vitro ADME, canine. As to conditions: dog, Control (no inhibitor or substrate), read-out: ER. The protocol: as §1, §2, §3, §4
Data set [5] has as its system MCTs. The data set is described as above. The class given is in vitro ADME, canine. Particulars: dog, with phloretin 0.3 mM, + Phloretin 0.3 mM (MCTs). The protocol:
as §1, §2, §3, §4

Data set [6] has as its system OATPs. Described as above. As to conditions: dog, with ES 0.05 mM (50 μM), + ES 0.05 mM (OATPs). The class given is in vitro ADME, canine. The protocol: as §1, §2, §3, §4
Data set [7] concerns PEPT1. The description is as above. The class given is in vitro ADME, canine. Particulars: dog, with Gly-Sar 10 mM, + Gly-Sar 10 mM (PEPT1). The protocol:
as §1, §2, §3, §4

For data set [8], the target named is T1, human MDR1 (Homo sapiens, UniProt P08183).
T1 construct: purchased GenoMembrane (Kanagawa, Japan); host or cells: Sf9
T1 sequence (P08183 whole entry): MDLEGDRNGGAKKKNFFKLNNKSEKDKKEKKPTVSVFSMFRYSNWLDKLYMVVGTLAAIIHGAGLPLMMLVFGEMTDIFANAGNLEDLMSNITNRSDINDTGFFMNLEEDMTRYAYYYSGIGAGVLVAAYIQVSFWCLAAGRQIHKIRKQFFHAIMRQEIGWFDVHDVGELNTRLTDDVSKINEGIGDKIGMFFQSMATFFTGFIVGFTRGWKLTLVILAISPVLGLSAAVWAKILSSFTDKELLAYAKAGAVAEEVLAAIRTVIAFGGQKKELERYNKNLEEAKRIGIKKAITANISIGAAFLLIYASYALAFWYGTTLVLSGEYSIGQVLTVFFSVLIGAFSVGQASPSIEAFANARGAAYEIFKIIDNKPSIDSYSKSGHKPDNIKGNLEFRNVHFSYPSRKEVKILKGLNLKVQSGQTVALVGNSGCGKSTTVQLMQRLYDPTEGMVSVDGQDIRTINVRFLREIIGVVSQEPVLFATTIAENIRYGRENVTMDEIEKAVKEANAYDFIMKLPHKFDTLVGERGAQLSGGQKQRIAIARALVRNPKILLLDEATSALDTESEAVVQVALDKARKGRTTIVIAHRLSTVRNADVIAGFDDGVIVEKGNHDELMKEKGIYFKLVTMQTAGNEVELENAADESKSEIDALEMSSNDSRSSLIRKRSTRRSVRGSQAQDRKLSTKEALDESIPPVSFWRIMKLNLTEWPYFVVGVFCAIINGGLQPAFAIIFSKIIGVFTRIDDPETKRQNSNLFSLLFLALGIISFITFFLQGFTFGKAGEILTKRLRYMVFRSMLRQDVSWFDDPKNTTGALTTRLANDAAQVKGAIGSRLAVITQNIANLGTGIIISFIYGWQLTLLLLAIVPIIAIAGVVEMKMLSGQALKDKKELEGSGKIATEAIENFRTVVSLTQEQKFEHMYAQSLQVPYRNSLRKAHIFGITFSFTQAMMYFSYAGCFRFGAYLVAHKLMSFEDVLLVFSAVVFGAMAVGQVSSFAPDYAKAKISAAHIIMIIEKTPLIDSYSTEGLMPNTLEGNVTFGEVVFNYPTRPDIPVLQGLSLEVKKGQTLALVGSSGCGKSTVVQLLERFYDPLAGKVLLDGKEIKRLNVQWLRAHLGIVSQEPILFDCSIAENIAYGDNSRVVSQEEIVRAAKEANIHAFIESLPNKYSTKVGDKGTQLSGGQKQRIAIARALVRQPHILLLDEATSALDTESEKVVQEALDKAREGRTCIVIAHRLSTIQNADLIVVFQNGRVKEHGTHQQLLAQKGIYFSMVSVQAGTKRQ
As to the kind of experiment: Vesicular transport assay, Sf9 membrane vesicles expressing human MDR1. The class given is in vitro ADME. Particulars: 1 μM, MgATP vs MgAMP. The protocol: (§5) The vesicular transport assay was implemented as described in the GenoMembrane™ vesicular transport kit protocol (GenoMembrane, Kanagawa, Japan) with minor changes. Briefly, vesicle stocks were thawed and diluted with assay buffer (50 mM MOPS-Tris, 70 mM KCl, and 7.5 mM MgCl2). […] MgAMP instead of MgATP was used as a control. Apart from these, 4 mM glutathione was also included in BCRP and MRP2 assays. Transport was terminated with ice cold assay buffer, and then samples were quickly transferred to a filter plate. Wells were immediately washed 5 times with 200 μL assay buffer and dried. The vesicles on the plate were dissolved in 50 μL of 80% methanol and centrifuged at 2,000 rpm for 2 min after collection, and repeating the above procedures. Mixed the two filtrates together and added the pre-cooled methanol. After centrifugation at 12,000 rpm for 5 min at 4°C, a 5 μL aliquot of supernatant was injected into the UPLC-ESI-MS/MS system for analysis. Furthermore, the uptake of NMQ (MDR1), LY (BCRP), and E217βG (MRP2) was used to evaluate the activity of specific vesicles.

The target of data set [9] is T2, human MRP2 (Homo sapiens, UniProt Q92887).
T2 construct: purchased GenoMembrane (Kanagawa, Japan); host or cells: Sf9
T2 sequence (Q92887 whole entry): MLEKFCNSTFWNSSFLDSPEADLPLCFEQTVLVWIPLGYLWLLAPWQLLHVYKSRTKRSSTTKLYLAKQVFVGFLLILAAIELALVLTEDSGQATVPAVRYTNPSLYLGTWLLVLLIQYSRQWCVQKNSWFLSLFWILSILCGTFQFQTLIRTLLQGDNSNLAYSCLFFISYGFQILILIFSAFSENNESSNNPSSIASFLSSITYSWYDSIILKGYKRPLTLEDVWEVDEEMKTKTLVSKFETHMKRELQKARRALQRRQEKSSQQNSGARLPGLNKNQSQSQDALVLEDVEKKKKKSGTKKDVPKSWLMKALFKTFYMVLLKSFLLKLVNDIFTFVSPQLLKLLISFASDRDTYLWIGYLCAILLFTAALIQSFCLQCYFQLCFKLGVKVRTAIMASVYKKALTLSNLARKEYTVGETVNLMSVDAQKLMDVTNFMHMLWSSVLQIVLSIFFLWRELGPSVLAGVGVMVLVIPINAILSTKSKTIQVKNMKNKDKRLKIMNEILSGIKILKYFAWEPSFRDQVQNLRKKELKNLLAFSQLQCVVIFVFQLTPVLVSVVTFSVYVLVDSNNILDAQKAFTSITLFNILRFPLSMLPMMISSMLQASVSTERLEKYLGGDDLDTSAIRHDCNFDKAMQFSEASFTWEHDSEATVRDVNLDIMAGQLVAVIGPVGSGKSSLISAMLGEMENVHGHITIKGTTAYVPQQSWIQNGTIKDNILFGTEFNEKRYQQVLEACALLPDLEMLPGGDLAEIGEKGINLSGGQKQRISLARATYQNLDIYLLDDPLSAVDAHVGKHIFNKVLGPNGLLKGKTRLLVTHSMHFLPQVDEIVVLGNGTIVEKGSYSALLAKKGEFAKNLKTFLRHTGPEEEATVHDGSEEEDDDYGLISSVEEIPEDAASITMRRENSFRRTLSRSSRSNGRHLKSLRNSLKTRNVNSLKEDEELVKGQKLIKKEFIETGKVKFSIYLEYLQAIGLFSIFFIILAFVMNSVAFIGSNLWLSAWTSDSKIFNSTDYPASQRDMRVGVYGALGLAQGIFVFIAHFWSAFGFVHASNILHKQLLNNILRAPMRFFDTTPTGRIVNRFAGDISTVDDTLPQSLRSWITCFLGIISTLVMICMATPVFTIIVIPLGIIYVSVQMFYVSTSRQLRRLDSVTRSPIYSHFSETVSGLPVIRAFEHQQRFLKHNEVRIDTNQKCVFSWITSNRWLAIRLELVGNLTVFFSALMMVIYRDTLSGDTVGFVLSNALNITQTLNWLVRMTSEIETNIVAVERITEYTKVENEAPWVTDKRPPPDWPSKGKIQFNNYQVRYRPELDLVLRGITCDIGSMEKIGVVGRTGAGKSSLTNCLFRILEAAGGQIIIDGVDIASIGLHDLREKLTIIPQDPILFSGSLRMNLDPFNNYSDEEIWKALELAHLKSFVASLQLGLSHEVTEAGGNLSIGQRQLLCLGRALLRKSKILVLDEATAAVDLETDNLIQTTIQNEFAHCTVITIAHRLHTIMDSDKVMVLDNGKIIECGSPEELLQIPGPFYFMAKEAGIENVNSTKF
The data set can be described thus: Vesicular transport assay, Sf9 membrane vesicles expressing human MRP2. The class given is in vitro ADME. Particulars: 1 μM, MgATP vs MgAMP. As for the experimental part: as §5

Details of data set [10]: method as in Wu et al., 2009. Particulars: wild-type and CYP2D6-humanized mice, intraperitoneal injection, 5 or 15 mg/kg; ref Wu et al., 2009; cited from earlier work.

`COc1ccc2c3c([nH]c2c1)C(C)=NCC3` [Harmaline]: the efflux ratio came to 0.95 in [1], 1.13 in data set [2] and 0.95 in data set [3]. In addition, the efflux ratio at 120 min, 2 μM in data set [4] amounted to 1.03; in [5] (read-out: ER) it was 1.15; in data set [6] (read-out: ER), 1.07; in data set [7] (read-out: ER) it was 1.03. Moreover, the apparent permeability from basolateral to apical (Papp B→A) at 120 min, 2 μM amounted to 23.3 ± 1.4 ×10⁻⁶ cm/s in [5] and 21.4 ± 1.96 ×10⁻⁶ cm/s in [7]. Also, the apical-to-basolateral permeability (Papp A→B) at 120 min, 2 μM stood at 19.4 ± 3.23 ×10⁻⁶ cm/s in [6] and 20.9 ± 2.9 ×10⁻⁶ cm/s in [7]. Moreover, the “uptake ratio (UR)” value in data set [8] is < 2.00 and 1.97; in [9], < 2.00 and 1.35. Also, in data set [10], the F-values was 73.7% and 98.2% and 68.6% and 60.0%.
